“Also recorded” adds a separate entry of the source.
How the values were obtained:
[1] = system: isolated LSECs (liver sinusoidal endothelial cells); experiment: SEM of fenestrations in isolated LSECs from young and old mice after 30 min drug treatment (second Example 7); format: cell-based; conditions: for Diameter / Frequency / Porosity: 30 min; for effect on porosity and fenestration frequency (summary in words): young and old LSECs
Experimental: 3-4 and 18-24 month old male C57/B16 mice were obtained from the Animal Resource Centre in Perth, Western Australia. Animals were housed at the ANZAC Research Institute animal house on a 12 hour light/dark cycle and provided with ad libitum access to food and water. Mice were not fasted prior to euthanasia by a single intraperitoneal injection with 100 mg/kg ketamine and 10 mg/kg xylazine in saline. The study was approved by the Animal Welfare Committee of the Sydney Local Health District and was performed in accordance with the Australian Code of Practice for the care and use of animals for scientific research (AWC 2016/009). All information provided accords with the ARRIVE guidelines.
As described previously (Cogger et al. J e52698, 2015 https://dx.doi.org/10.3791/52698), mouse LSEC isolation was performed by perfusion of the liver with collagenase. Non-parenchymal cells were removed by a two-step Percoll gradient and Kupffer cells were removed by selective adherence to plastic. LSECs (seeded at 0.5×10^6 cells/cm2) were cultured (37° C., 5% CO2) in serum free RPMI-1640 for 3.5 hours before use.
Cells were treated with various agents for 30 minutes to determine effects on fenestrations. All agents were dissolved in serum-free RPMI media. All experiments were performed in triplicate for both young and old mice. Actin was disrupted with 0.5 μg/ml cytochalasin D and lipid rafts were disrupted with 3.6 and 1.8 μg/ml 7-keocholesterol; dosages were selected. […] The serotonergic/phospholipase C pathway was promoted with DOI (0.1 μg/ml) and endothelin receptors were inhibited by bosentan (550, 55 and 5.5 ng/ml) Death receptor 4 was promoted with TRAIL (100, 10. 1, 0.1 and 0.01 ng/ml) and NAD+ was promoted with NMN (5000, 50, 10, 1 and 0.1 μg/ml).
SEM was performed as previous described (Corbin et al J Biol Chem 274: 13729-13732, 1999.). LSECs were fixed in 2.5% glutaraldehyde in 0.1M sodium cacodylate buffer, osmicated, dehydrated in graded ethanol and hexamethyl disilazane, mounted on stubs, sputter coated with platinum and examined using a JEOL 6380 Scanning Electron Microscope (JEOL Ltd, Japan). Images at 10,000× magnification were collected by a blinded observer and used to measure fenestration diameter and LSEC porosity using Image J (NIH, MD, USA). […] Fenestrations less than 30 nm and gaps more than 300 nm were excluded from analysis. Porosity was defined as the percentage of the cell membrane covered with fenestrations. Frequency was defined at the number of fenestrations per […].
Individual specifications of analyses are described in figures legends. All data are presented as mean±SD. Experimental design and analysis were performed in accordance with the APS guidelines described in Curran-Everett and Benos DJ. Adv Physiol Educ 31: 295-298, 2007.

LSEC fenestrations = experiment: SEM of LSEC fenestrations after drug treatments (Example 2, FIGS. 1-6); format: cell-based, mice; conditions: for sieve plates and fenestration density on SEM images: young and old mice; for change in fenestration diameter: Bosentan 0.1 μM, Sildenafil 300 ng/ml, TRAIL 1 μg/ml
Source text: Young and old C57B16 mice (n=3 young mice, age 3-4 and n=3 old mice, 20-24 months) were maintained under full SPF conditions and with ad libitum feeding. The study had the approval of the Sydney South West Area Health Service Animal Welfare Committee. Mice at 20-24 months are senescent. Animals were sacrificed withCO2 and livers immediately perfusion-fixed via a 23G needle inserted into the portal vein. Liver tissue was fixed with1% glutaraldehyde/4% para-formaldehyde in PBS (0.1M sucrose).
Drug treatments and dosages (shown superimposed on their corresponding image in FIGS. 1, and 2) were performed by incubating liver cells at 37° C., 5% CO2 for 30 mins using RPMI with or without dissolved drug. All images were taken by two blinded researchers using a SEM at 10,000×, scale bars of 1 μm are shown.
Each data point represents the average±SD of 8 images (as shown in FIGS. 1 and 2), 616-3312 fenestration raw data points were collected per treatment.

NAD+ = conditions: cited from earlier work
[2] = system: actin cytoskeleton of LSECs; experiment: dSTORM imaging of the actin cytoskeleton; format: cell-based; conditions: young mice
Experimental: dSTORM imaging was performed using an in-house microscope. LSECs were prepared for dSTORM by washing twice with PBS and fixation with 4% paraformaldehyde for 30 mins. Then LSECs were washed twice with PBS, permeabilised with Triton-X for 90 secs, blocked with 5% bovine serum albumin for 1 hour, and stained with Alexa Flour phalloidin 488 (1:40) for 20 min prior to imaging. Cells were washed using PBS with 0.1% Tween and placed in OxEA buffer (30) for dSTORM visualisation and image capture. The dSTORM used 488 and 647 nm excitation from diode-pumped lasers (Coherent Inc, CA, USA). Excitation was delivered via a 1.49NA 60× oil-immersion TIRF objective (Olympus Australia, AUS). Fluorescence was captured on two separate sCMOS cameras (Imaging Development Systems GmbH, Germany). Data was collected for up to 40,000 images at around 75 fps. 5-8 whole cell images were collected by a blinded observer for each treatment dosage and processed using rapidSTORM open source software (Wolter et al. Nat Methods 9: 1040, 2012.). Each image was examined for all sieve plates and actin structures. Densitometry measurements were performed using 5-8 dSTORM images with data analysis performed using Image J software (NIH, MD, USA).

Intracellular cGMP = experiment: Cyclic GMP ELISA; format: cell-based, mice
Experimental: Assays for MTT and cGMP were performed as instructed by the kit. Briefly, MTT assays were performed following drug treatments. Cells were washed with PBS and incubated with RPMI media containing […] MTT solution. Cells were incubated at 37° C. for 4 hrs and lysed with […] solubilisation solution, 30 mins colour development followed and measured at 570 nm using a spectrophotometer. cGMP assays were also performed after drug treatments. Cells were washed with PBS and lysed with 0.1M HCl. Following sample collection the sample was acetylated and prepared with kit reagents. Samples were incubated for 18 hrs at 4° C. before examination at 410 nm with a spectrophotometer.

[3] = old rats, 500 mg/kg; cited from earlier work
[4] = system: human umbilical vein endothelial cells; conditions: 15 mins of 1 μg/ml treatment; cited from earlier work

## NC(=O)c1ccc[n+]([C@@H]2O[C@H](COP(=O)([O-])O)[C@@H](O)[C@H]2O)c1 [NMN, nicotinamide mononucleotide]
[1]
  gap formation: Gap formation was apparent
  effect on porosity and fenestration frequency (summary in words): significant increases in porosity and fenestration frequency in both young and old LSECs
[1]; LSECs from young mice, increase from 4.6%
  fenestration porosity after treatment: 8.1%
[1]; old mice
  average fenestration diameter: 132±2 nm
[1]; old mice, 50 pg/ml
  increase in frequency: 2.25 fold
  increase in porosity: 2.5 fold
[1]; old mice, 50 μg/ml
  Diameter: 132.12 ± 2.28 nm
  Frequency: 3.95 ± 1.35 no/area
  Porosity: 5.92 ± 1.94 %
[1]; old mice, 5000 μg/ml
  Diameter: 139.05 ± 11.97 nm
  Frequency: 3.39 ± 0.60 no/area
  Porosity: 5.55 ± 1.75 %
[1]; young mice
  dose response on fenestration porosity (words): broad range
[1]; young mice, 50 μg/ml
  Diameter: 127.68 ± 8.19 nm
  Frequency: 4.53 ± 0.58 no/area
  Porosity: 6.08 ± 1.00%
[1]; young mice, 5000 μg/ml
  Diameter: 130.48 ± 13.21 nm
  Frequency: 5.53 ± 0.58 no/area
  Porosity: 8.05 ± 2.23 %
[1]; young mice, NMN 5000 μg/ml, 7-ketocholesterol 3.6 μg/ml
  shift in frequency distribution of fenestration diameter: an increase in 30-100 nm and 226-500 nm fenestrations with a reduction in 126-200 nm fenestrations
LSEC fenestrations
  diameter of fenestrations observed on SEM images: Increased diameter of fenestrations
  sieve plates and fenestration density on SEM images: promoted increased fenestration density and maintained sieve plate fenestration clustering
LSEC fenestrations; old mice
  sieve plate grouping on SEM images: greater fenestration sieve plate grouping
LSEC fenestrations; old mice, 50 μg/ml
  fenestration diameter: 133.4±0.9 nm
  fenestration frequency: 4.4±1.6 number/μm^2
  fenestration porosity: 6.6±2.2%
LSEC fenestrations; old mice, bin range of 101-125 nm
  peak frequency in histogram of fenestration diameter: 24%
LSEC fenestrations; young mice, 5 mg/ml
  fenestration frequency: 5.9±0.1 number/μm^2
  fenestration porosity: 9.1±2.0%
NAD+; diet and age induced type 2 diabetic mice models, similar dosages continuously for 7 days
  insulin action and secretion: improve insulin action and secretion
NAD+; female mice, 15 mins after single intraperitoneal injection of 500 mg/kg
  NAD+: Elevated NAD+
[2]
  actin changes with drug treatments (dSTORM): loss of smooth fibres encircling the cytoplasm; also recorded: disordered, dense actin staining in the plasma membrane and clustering of actin within the cytoplasm; also recorded: Individual fenestrations; also recorded: Disordered actin structure; also recorded: Actin clusters; also recorded: Gap formations
Intracellular cGMP
  change of intracellular cGMP: no changes
[3]
  glucose tolerance: improved glucose tolerance
  toxicity: non-toxic

B1: Tumor necrosis factor-related apoptosis inducing ligand (protein, UniProt P50591 1-281, looked up)
Tumor necrosis factor ligand …: MAMMEVQGGPSLGQTCVLIVIFTVLLQSLCVAVTYVYFTNELKQMQDKYSKSGIACFLKEDDSYWDPNDEESMNSPCWQVKWQLRQLVRKMILRTSEETISTVQEKQQNISPLVRERGPQRVAAHITGTRGRSNTLSSPNSKNEKALGRKINSWESSRSGHSFLSNLHLRNGELVIHEKGFYYIYSQTYFRFQEEIKENTKNDKQMVQYIYKYTSYPDPILLMKSARNSCWSKDAEYGLYSIYQGGIFELKENDRIFVSVTNEHLIDMDHEASFFGAFLVG
notes: death receptor 4/5 promoter
[1]; old mice, 1 ng/ml
  Diameter: 127.50 ± 15.53 nm
  Frequency: 1.97 ± 0.49 no/area
  Porosity: 2.79 ± 0.14%
[1]; old mice, 10 ng/ml
  Diameter: 120.08 ± 3.74 nm
  Frequency: 2.13 ± 0.48 no/area
  Porosity: 2.85 ± 0.53%
[1]; old mice, 100 ng/ml
  Diameter: 130.88 ± 17.00 nm
  Frequency: 2.03 ± 0.53 no/area
  Porosity: 2.97 ± 0.46%
[1]
  effect on porosity and fenestration frequency (summary in words): LSECs from young mice only demonstrated significant increases in porosity and frequency
[1]; young mice
  dose response on fenestration porosity (words): did not promote greater changes in fenestration porosity or frequency; also recorded: had the greatest activity and similar maximal efficacy to NMN but was more potent; also recorded: limited dosage range for positive effects on fenestration porosity
  increase in fenestration frequency: 40%
  increase in porosity: 60%
[1]; young mice, 1 ng/ml
  Diameter: 137.95 ± 8.12 nm
  Frequency: 4.47 ± 0.43 no/area
  Porosity: 7.17 ± 1.49 %
[1]; young mice, 10 ng/ml
  Change in Porosity, Young: ↑ (ns)
  Diameter: 140.36 ± 3.22 nm
  Frequency: 3.73 ± 0.46 no/area
  Porosity: 6.24 ± 0.52 %
[1]; young mice, 100 ng/ml
  Diameter: 145.87 ± 6.77 nm
  Frequency: 3.15 ± 0.27 no/area
  Porosity: 5.49 ± 0.63%
[1]; young mice, sildenafil 0.3 μg/ml, amlodipine 20 ng/ml, TRAIL 1 ng/ml
  fenestration numbers, fenestrated cell area and sieve plate formation: increased fenestration numbers and overall fenestrated cell area with some disruption to sieve plate formation
[4]
  NOS and phosphorylated NOS: upregulate NOS and phosphorylated NOS
LSEC fenestrations; old mice
  sieve plate grouping on SEM images: greater fenestration sieve plate grouping
LSEC fenestrations; old mice, 1 μg/ml
  fenestration porosity: 2.7±0.1%
LSEC fenestrations; old mice, 7KC 4.5 μM
  change in fenestration diameter: No changes in diameter
LSEC fenestrations
  sieve plates and fenestration density on SEM images: promoted increased fenestration density and maintained sieve plate fenestration clustering
LSEC fenestrations; young mice, 1 μg/ml
  fenestration frequency: 4.5±0.4 number/μm^2
  fenestration porosity: 7.2±1.5%
LSEC fenestrations; young mice
  change in fenestration diameter: No changes in diameter
[2]
  actin changes with drug treatments (dSTORM): absence of the intense actin clustering; also recorded: Disordered actin structure; also recorded: Gap formations; also recorded: Minimal actin clustering
Intracellular cGMP; p=0.001
  increase of intracellular cGMP: 3 fold

Source: US20210161894A1, “Compositions and Methods for Modulating Liver Endothelial Cell Fenestrations” (priority 2017, published 2021)
